Values after ≈ are worked out from the molar mass of the structure shown.
Tested on: Staphylococcus aureus FDA 209P
Experiment: Antimicrobial spectrum, minimal inhibitory concentration (agar dilution)
Assay type: cell-based
Settings: FDA209P, hydrochloride, inoculum 1 loopful of about 10^6/ml
Excerpt: (§1) *Culture medium: 17.5 g of Bacto antibiotic medium 3 (Difco), 5 g of Bact
(§2) yeast extract (Difco), 20 g of Bacto agar (Difco), 1 l of distilled water
(§3) The amount of inoculated microorganism: 1 loopful of about 10^6 /ml o
(§4) microorganism suspension.
(§5) *Medium: Bacto antibiotic medium (Difco) 17.5 g, Bacto yeast extract
(§6) (Difco) 5 g, Bacto agar (Difco) 20 g, distilled water 1 l, pH not

MIC [µg/mL] | Structure (SMILES)
> 50 | N=C(N)NCCCC(NC(=O)C(CO)NC(=O)C(N)CO)C(O)CC(=O)OCC1=C(C(=O)O)N2C(=O)C(NC(=O)CCCC(N)C(=O)O)C2SC1 (stereo not drawn) [TAN-592E]
> 50 | N=C(N)NCCCC(NC(=O)C(N)CO)C(O)CC(=O)OCC1=C(C(=O)O)N2C(=O)C(NC(=O)CCCC(N)C(=O)O)C2SC1 (stereo not drawn) [TAN-592D]

Tested on: Salmonella typhimurium IFO 12529
Experiment: as above
Assay type: cell-based
Settings: Salmonella enterica, hydrochloride, inoculum 1 loopful of about 10^6/ml
Excerpt: as §1, §2, §3, §4, §5, §6

MIC [µg/mL] | Structure (SMILES)
50 (≈ 66.9 µM) | N=C(N)NCCCC(NC(=O)C(CO)NC(=O)C(N)CO)C(O)CC(=O)OCC1=C(C(=O)O)N2C(=O)C(NC(=O)CCCC(N)C(=O)O)C2SC1 (stereo not drawn) [TAN-592E]
50 (≈ 75.7 µM) | N=C(N)NCCCC(NC(=O)C(N)CO)C(O)CC(=O)OCC1=C(C(=O)O)N2C(=O)C(NC(=O)CCCC(N)C(=O)O)C2SC1 (stereo not drawn) [TAN-592D]

Tested on: Klebsiella pneumoniae IFO 3317
Experiment: as above
Assay type: cell-based
Settings: IFO3317, hydrochloride, inoculum 1 loopful of about 10^6/ml
Excerpt: as §1, §2, §3, §4, §5, §6

MIC [µg/mL] | Structure (SMILES)
> 50 | N=C(N)NCCCC(NC(=O)C(CO)NC(=O)C(N)CO)C(O)CC(=O)OCC1=C(C(=O)O)N2C(=O)C(NC(=O)CCCC(N)C(=O)O)C2SC1 (stereo not drawn) [TAN-592E]
> 50 | N=C(N)NCCCC(NC(=O)C(N)CO)C(O)CC(=O)OCC1=C(C(=O)O)N2C(=O)C(NC(=O)CCCC(N)C(=O)O)C2SC1 (stereo not drawn) [TAN-592D]

Tested on: Bacillus subtilis NIHJ PCI 219
Experiment: as above
Assay type: cell-based
Settings: hydrochloride, inoculum 1 loopful of about 10^6/ml
Excerpt: as §1, §2, §3, §4, §5, §6

MIC [µg/mL] | Structure (SMILES)
1.56 (≈ 2.09 µM) | N=C(N)NCCCC(NC(=O)C(CO)NC(=O)C(N)CO)C(O)CC(=O)OCC1=C(C(=O)O)N2C(=O)C(NC(=O)CCCC(N)C(=O)O)C2SC1 (stereo not drawn) [TAN-592E]
1.56 (≈ 2.36 µM) | N=C(N)NCCCC(NC(=O)C(N)CO)C(O)CC(=O)OCC1=C(C(=O)O)N2C(=O)C(NC(=O)CCCC(N)C(=O)O)C2SC1 (stereo not drawn) [TAN-592D]

Tested on: Escherichia coli NIHJ JC-2
Experiment: as above
Assay type: cell-based
Settings: NIHJJC2, hydrochloride, inoculum 1 loopful of about 10^6/ml
Excerpt: as §1, §2, §3, §4, §5, §6

MIC [µg/mL] | Structure (SMILES)
> 50 | N=C(N)NCCCC(NC(=O)C(CO)NC(=O)C(N)CO)C(O)CC(=O)OCC1=C(C(=O)O)N2C(=O)C(NC(=O)CCCC(N)C(=O)O)C2SC1 (stereo not drawn) [TAN-592E]
> 50 | N=C(N)NCCCC(NC(=O)C(N)CO)C(O)CC(=O)OCC1=C(C(=O)O)N2C(=O)C(NC(=O)CCCC(N)C(=O)O)C2SC1 (stereo not drawn) [TAN-592D]

Tested on: Bacillus megaterium IFO 12108
Experiment: as above
Assay type: cell-based
Settings: Priestia megaterium, IFO12108, hydrochloride, inoculum 1 loopful of about 10^6/ml
Excerpt: as §1, §2, §3, §4, §5, §6

MIC [µg/mL] | Structure (SMILES)
1.56 (≈ 2.09 µM) | N=C(N)NCCCC(NC(=O)C(CO)NC(=O)C(N)CO)C(O)CC(=O)OCC1=C(C(=O)O)N2C(=O)C(NC(=O)CCCC(N)C(=O)O)C2SC1 (stereo not drawn) [TAN-592E]
1.56 (≈ 2.36 µM) | N=C(N)NCCCC(NC(=O)C(N)CO)C(O)CC(=O)OCC1=C(C(=O)O)N2C(=O)C(NC(=O)CCCC(N)C(=O)O)C2SC1 (stereo not drawn) [TAN-592D]

Tested on: Citrobacter freundii IFO 12681
Experiment: as above
Assay type: cell-based
Settings: IFO12681, hydrochloride, inoculum 1 loopful of about 10^6/ml
Excerpt: as §1, §2, §3, §4, §5, §6

MIC [µg/mL] | Structure (SMILES)
> 50 | N=C(N)NCCCC(NC(=O)C(CO)NC(=O)C(N)CO)C(O)CC(=O)OCC1=C(C(=O)O)N2C(=O)C(NC(=O)CCCC(N)C(=O)O)C2SC1 (stereo not drawn) [TAN-592E]
> 50 | N=C(N)NCCCC(NC(=O)C(N)CO)C(O)CC(=O)OCC1=C(C(=O)O)N2C(=O)C(NC(=O)CCCC(N)C(=O)O)C2SC1 (stereo not drawn) [TAN-592D]

Tested on: Proteus vulgalis IFO 3988
Experiment: as above
Assay type: cell-based
Settings: hydrochloride, inoculum 1 loopful of about 10^6/ml
Excerpt: as §1, §2, §3, §4, §5, §6

MIC [µg/mL] | Structure (SMILES)
50 (≈ 66.9 µM) | N=C(N)NCCCC(NC(=O)C(CO)NC(=O)C(N)CO)C(O)CC(=O)OCC1=C(C(=O)O)N2C(=O)C(NC(=O)CCCC(N)C(=O)O)C2SC1 (stereo not drawn) [TAN-592E]
50 (≈ 75.7 µM) | N=C(N)NCCCC(NC(=O)C(N)CO)C(O)CC(=O)OCC1=C(C(=O)O)N2C(=O)C(NC(=O)CCCC(N)C(=O)O)C2SC1 (stereo not drawn) [TAN-592D]

Tested on: Serratia marcescens IFO 12648
Experiment: as above
Assay type: cell-based
Settings: IFO12648, hydrochloride, inoculum 1 loopful of about 10^6/ml
Excerpt: as §1, §2, §3, §4, §5, §6

MIC [µg/mL] | Structure (SMILES)
> 50 | N=C(N)NCCCC(NC(=O)C(CO)NC(=O)C(N)CO)C(O)CC(=O)OCC1=C(C(=O)O)N2C(=O)C(NC(=O)CCCC(N)C(=O)O)C2SC1 (stereo not drawn) [TAN-592E]
> 50 | N=C(N)NCCCC(NC(=O)C(N)CO)C(O)CC(=O)OCC1=C(C(=O)O)N2C(=O)C(NC(=O)CCCC(N)C(=O)O)C2SC1 (stereo not drawn) [TAN-592D]

Tested on: Acinetobacter calcoaceticus IFO 12552
Experiment: as above
Assay type: cell-based
Settings: IFO12552, hydrochloride, inoculum 1 loopful of about 10^6/ml
Excerpt: as §1, §2, §3, §4, §5, §6

MIC [µg/mL] | Structure (SMILES)
> 50 | N=C(N)NCCCC(NC(=O)C(CO)NC(=O)C(N)CO)C(O)CC(=O)OCC1=C(C(=O)O)N2C(=O)C(NC(=O)CCCC(N)C(=O)O)C2SC1 (stereo not drawn) [TAN-592E]
> 50 | N=C(N)NCCCC(NC(=O)C(N)CO)C(O)CC(=O)OCC1=C(C(=O)O)N2C(=O)C(NC(=O)CCCC(N)C(=O)O)C2SC1 (stereo not drawn) [TAN-592D]

Tested on: Alcaligenes faecalis IFO 13111
Experiment: as above
Assay type: cell-based
Settings: IFO13111, hydrochloride, inoculum 1 loopful of about 10^6/ml
Excerpt: as §1, §2, §3, §4, §5, §6

MIC [µg/mL] | Structure (SMILES)
25 (≈ 33.4 µM) | N=C(N)NCCCC(NC(=O)C(CO)NC(=O)C(N)CO)C(O)CC(=O)OCC1=C(C(=O)O)N2C(=O)C(NC(=O)CCCC(N)C(=O)O)C2SC1 (stereo not drawn) [TAN-592E]
25 (≈ 37.8 µM) | N=C(N)NCCCC(NC(=O)C(N)CO)C(O)CC(=O)OCC1=C(C(=O)O)N2C(=O)C(NC(=O)CCCC(N)C(=O)O)C2SC1 (stereo not drawn) [TAN-592D]

Tested on: Pseudomonas aeruginosa IFO 3080
Experiment: as above
Assay type: cell-based
Settings: IFO3080, hydrochloride, inoculum 1 loopful of about 10^6/ml
Excerpt: as §1, §2, §3, §4, §5, §6

MIC [µg/mL] | Structure (SMILES)
> 50 | N=C(N)NCCCC(NC(=O)C(CO)NC(=O)C(N)CO)C(O)CC(=O)OCC1=C(C(=O)O)N2C(=O)C(NC(=O)CCCC(N)C(=O)O)C2SC1 (stereo not drawn) [TAN-592E]
> 50 | N=C(N)NCCCC(NC(=O)C(N)CO)C(O)CC(=O)OCC1=C(C(=O)O)N2C(=O)C(NC(=O)CCCC(N)C(=O)O)C2SC1 (stereo not drawn) [TAN-592D]

Tested on: Brevibacterium thiogenitalis ATCC 19240
Experiment: as above
Assay type: cell-based
Settings: Corynebacterium glutamicum, ATCC19240, hydrochloride, inoculum 1 loopful of about 10^6/ml
Excerpt: as §1, §2, §3, §4, §5, §6

MIC [µg/mL] | Structure (SMILES)
3.13 (≈ 4.19 µM) | N=C(N)NCCCC(NC(=O)C(CO)NC(=O)C(N)CO)C(O)CC(=O)OCC1=C(C(=O)O)N2C(=O)C(NC(=O)CCCC(N)C(=O)O)C2SC1 (stereo not drawn) [TAN-592E]
3.13 (≈ 4.74 µM) | N=C(N)NCCCC(NC(=O)C(N)CO)C(O)CC(=O)OCC1=C(C(=O)O)N2C(=O)C(NC(=O)CCCC(N)C(=O)O)C2SC1 (stereo not drawn) [TAN-592D]

Tested on: not listed separately
Experiment: Solubility in solvents
Assay type: physicochemical
Settings: dimethylsulfoxide, methanol, acetone, ethyl acetate; hydrochloride

Solubility | Structure (SMILES)
Sparingly soluble | N=C(N)NCCCC(NC(=O)C(CO)NC(=O)C(N)CO)C(O)CC(=O)OCC1=C(C(=O)O)N2C(=O)C(NC(=O)CCCC(N)C(=O)O)C2SC1 (stereo not drawn) [TAN-592E]
Sparingly soluble | N=C(N)NCCCC(NC(=O)C(N)CO)C(O)CC(=O)OCC1=C(C(=O)O)N2C(=O)C(NC(=O)CCCC(N)C(=O)O)C2SC1 (stereo not drawn) [TAN-592D]

Same assay, conditions: water, aqueous acetone, aqueous alcohol; hydrochloride

Solubility | Structure (SMILES)
Easily soluble | N=C(N)NCCCC(NC(=O)C(CO)NC(=O)C(N)CO)C(O)CC(=O)OCC1=C(C(=O)O)N2C(=O)C(NC(=O)CCCC(N)C(=O)O)C2SC1 (stereo not drawn) [TAN-592E]
Easily soluble | N=C(N)NCCCC(NC(=O)C(N)CO)C(O)CC(=O)OCC1=C(C(=O)O)N2C(=O)C(NC(=O)CCCC(N)C(=O)O)C2SC1 (stereo not drawn) [TAN-592D]

Reference: patent US4667027A, “Cephem compounds and their production” (Takeda Chemical Industries, Ltd., priority 1984, dated 1987)
